The target in one assay is T1, Recombinant human DPP4 (Homo sapiens, UniProt P27487).
T1 construct: purchased R&D systems 9168-SE
Description: DPP4 protease activity assay. It counts as biochemical. As to conditions: 20 µM GP-AMC substrate; read-out: pIC50 (DPP4) (converted). The procedure:
The PREP activity assay was performed using the FACS buffer (PBS including 1% FBS, Sigma-Aldrich, Cat# D8537). […] The DPP4 activity assay was performed in DPP assay buffer (25 mM Tris, pH 8.0).
Four parameter logistic (4PL) curve fitting and pIC50 calculations were performed using ActivityBase software.

In assay [1] the target is T2, FAP-expressing human WI-38 fibroblasts (Homo sapiens, UniProt Q12884).
T2 construct: FAP-expressing human WI-38 fibroblasts (ECACC 90020107) were cultured in EMEM; host or cells: WI-38 human fibroblasts
T2 sequence (Q12884 1-760): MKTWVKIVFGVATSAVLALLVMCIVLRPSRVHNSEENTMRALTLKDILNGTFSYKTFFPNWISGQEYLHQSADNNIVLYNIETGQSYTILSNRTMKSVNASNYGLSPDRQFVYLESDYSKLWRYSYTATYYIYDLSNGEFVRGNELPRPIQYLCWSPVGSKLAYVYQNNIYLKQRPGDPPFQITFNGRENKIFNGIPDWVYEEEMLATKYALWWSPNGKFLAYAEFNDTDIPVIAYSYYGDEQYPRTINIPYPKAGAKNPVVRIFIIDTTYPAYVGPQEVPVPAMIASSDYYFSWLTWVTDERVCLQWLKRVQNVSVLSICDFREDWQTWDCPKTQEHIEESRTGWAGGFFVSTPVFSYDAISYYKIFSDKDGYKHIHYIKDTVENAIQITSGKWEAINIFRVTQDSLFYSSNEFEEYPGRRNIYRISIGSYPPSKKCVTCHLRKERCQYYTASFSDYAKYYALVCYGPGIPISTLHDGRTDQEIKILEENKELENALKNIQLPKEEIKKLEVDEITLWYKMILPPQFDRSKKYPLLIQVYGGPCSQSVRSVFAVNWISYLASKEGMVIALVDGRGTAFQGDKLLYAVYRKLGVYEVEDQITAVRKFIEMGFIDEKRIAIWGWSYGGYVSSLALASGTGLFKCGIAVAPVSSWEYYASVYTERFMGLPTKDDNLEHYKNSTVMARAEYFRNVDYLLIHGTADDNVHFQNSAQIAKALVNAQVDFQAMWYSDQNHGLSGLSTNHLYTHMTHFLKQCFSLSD
Put plainly: Competitive FACS binding assay (displacement of Cy5-labeled FAP inhibitor 3BP-2935). As to conditions: 3 nM Cy5-labeled 3BP-2935, 4°C, 1 hour. Here is the method: In order to determine binding of compounds according to the present invention to FAP-expressing cells, a competitive FACS binding assay was established.
Cells were diluted in FACS buffer to a final concentration of 100.000 cells per ml and 200 µl of the cell suspension are transferred to a u-shaped non-binding 96-well plate (Greiner).
Cell were washed twice with FACS buffer (see above) and resuspended in 200 µl FACS buffer. Cells were analyzed in an Attune NxT flow cytometer (Thermo Fisher Scientific). Median fluorescence intensities (Cy5 channel) was calculated by Attune NxT software and plotted against test compound concentrations. Four parameter logistic (4PL) curve fitting and pIC50 calculations were performed using ActivityBase software.

Assay [2] has as its target T3, Human recombinant FAP (Homo sapiens, UniProt Q12884).
T3 sequence (Q12884 1-760): T2 sequence (Q12884 1-760)
Put plainly: FRET-based FAP protease activity assay (human). It counts as biochemical. More on the design: purchased R&D systems 3715-SE. As to conditions: FRET-peptide substrate, 37°C; for IC50: read-out: pIC50 (Activity) (converted). Here is the method:
(§1) In order to determine the inhibitory activity a FRET-based FAP protease activity assay was established.
25 µL of a 30 µM substrate solution, diluted in assay buffer, was added. […] Four parameter logistic (4PL) curve fitting and pIC50 calculations were performed using ActivityBase software (IDBS).

Assay [3] addresses T3, Human recombinant FAP. Put plainly: Surface plasmon resonance assay (Biacore T200, single cycle kinetics). Format: binding. To be noted: SPR, 25°C; for HL [min] (Biacore): half-life; for Kd / pKD (Biacore): 1:1 Langmuir binding model; for Kd: read-out: pKD (Biacore) (converted). Here is the method: Surface plasmon resonance studies were performed using a Biacore™ T200 SPR system (Cytiva, formerly GE Healthcare). Briefly, polarized light is directed towards a gold-labeled sensor surface, and minimum intensity reflected light is detected. The angle of reflected light changes as molecules bind and dissociate. […] Test compounds are contacted with the loaded surface, and a real-time interaction profile with the FAP ligand is recorded in a sensorgram. In real-time, the association and dissociation of a binding interaction is measured, enabling calculation of association and dissociation rate constants and the corresponding affinity constants. Importantly, a background response is generated due to the difference in the refractive indices of the running and sample buffers, as well as unspecific binding of the test compounds to the flow cell surface. This background is measured and subtracted by running the sample on a control flow cell coated with the same density of capture antibody in the absence of immobilized FAP. Furthermore, baseline drift correction of the binding data is performed, which is caused by slow dissociation of the captured FAP from the immobilized antibody. This drift is measured by injecting running buffer through a flow cell with the antibody and FAP immobilized to the sensor surface.
Biacore™ CM5 sensor chips were used. […] A 150 µL aliquot was transferred into plastic vials and placed into the sample rack of the Biacore™ T200 instrument. Amine Coupling Kit Reagent solutions were transferred into plastic vials and placed into the sample rack: 90 µL of 0.4 M 1-ethyl-3-(3-dimethylaminopropyl)carbodiimide (EDC), and 90 µL of 0.1 M N-hydroxysuccinimide (NHS). A 130 µL aliquot of 1 M ethanolamine-HCl, pH 8.5, was transferred into plastic vials and placed into the sample rack. The Biacore™ liquid system was set-up as follows: Separate bottles containing distilled water (1 L), Running Buffer (500 mL), as well as an empty bottle for waste were placed onto the buffer tray. A preinstalled program for immobilization was used, with an immobilization level of 7000 RU. Immobilization was performed at 25°C. The immobilization procedure of anti-FAP antibodies was performed, as described in the Table 5. Table 5: Immobilization protocol for anti-FAP antibodies used on the CM5 sensor chip.
Human recombinant FAP was diluted in Running Buffer to a final concentration of 20 µg/mL. A 100 µL aliquot of human FAP-Working-Solution was transferred into plastic vials and placed into a sample rack. A 0.5 mM Compound-Stock-Solution was prepared by dissolving each compound in DMSO. For each test compound, Compound-Stock-Solutions were diluted in Running Buffer (HBST) at 500 nM and further diluted with HBST-DMSO Buffer (0.1% DMSO). SPR binding analyses for binary complexes were performed in SCK mode at 25°C. Following three SCK measurements, a baseline drift was assessed by injecting running buffer through a flow cell, with the antibody and FAP immobilized to the sensor surface. Table 6: Protocol for assessing the binding kinetics.
For each test compound, SPR raw data in the form of resonance units (RU) were plotted as sensorgrams using the Biacore™ T200 control software. The signal from the blank sensorgram was subtracted from that of the test compound sensorgram (blank corrected). The blank corrected sensorgram was corrected for baseline drift by subtracting the sensorgram of a SCK run without the test compound (running buffer only). The association rate (kon), dissociation rate (koff), dissociation constant (KD), and t1/2 were calculated from Blank-normalized SPR data using the 1:1 Langmuir binding model from the Biacore™ T200 evaluation software. Raw data and fit results were imported as text files in IDBS. The pKD value (negative decadic logarithm of dissociation constant) was calculated in the IDBS excel template.

A further assay addresses T4, Recombinant mouse FAP (Mus musculus, UniProt P97321).
T4 construct: purchased R&D systems 8647-SE
T4 sequence (P97321 1-761): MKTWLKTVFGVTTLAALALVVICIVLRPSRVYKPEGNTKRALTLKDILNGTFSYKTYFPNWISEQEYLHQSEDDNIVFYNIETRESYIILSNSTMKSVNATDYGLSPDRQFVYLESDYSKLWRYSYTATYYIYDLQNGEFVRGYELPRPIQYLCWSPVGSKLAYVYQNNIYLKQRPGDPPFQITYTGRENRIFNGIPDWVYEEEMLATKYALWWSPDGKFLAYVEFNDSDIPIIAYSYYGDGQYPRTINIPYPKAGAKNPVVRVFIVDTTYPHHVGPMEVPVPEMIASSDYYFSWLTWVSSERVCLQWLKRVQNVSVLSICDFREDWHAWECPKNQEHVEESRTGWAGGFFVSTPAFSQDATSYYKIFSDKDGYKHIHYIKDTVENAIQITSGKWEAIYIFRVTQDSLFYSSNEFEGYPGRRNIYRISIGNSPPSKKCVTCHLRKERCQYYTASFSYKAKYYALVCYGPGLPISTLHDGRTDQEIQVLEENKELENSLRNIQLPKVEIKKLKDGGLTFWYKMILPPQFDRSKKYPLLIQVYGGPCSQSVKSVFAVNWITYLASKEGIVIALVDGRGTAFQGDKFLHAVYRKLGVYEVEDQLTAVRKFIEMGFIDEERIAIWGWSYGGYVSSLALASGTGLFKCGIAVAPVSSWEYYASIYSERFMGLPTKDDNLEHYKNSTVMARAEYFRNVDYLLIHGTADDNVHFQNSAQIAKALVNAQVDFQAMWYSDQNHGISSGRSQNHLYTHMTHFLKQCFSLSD
Put plainly: FRET-based FAP protease activity assay (mouse). Format: biochemical. As to conditions: FRET-peptide substrate, 37°C. Here is the method: as §1
25 µL of a 30 µM substrate solution, diluted in assay buffer, was added. […] Four parameter logistic (4PL) curve fitting and pIC50 calculations were performed using ActivityBase software.

T1 sequence (P27487 whole entry): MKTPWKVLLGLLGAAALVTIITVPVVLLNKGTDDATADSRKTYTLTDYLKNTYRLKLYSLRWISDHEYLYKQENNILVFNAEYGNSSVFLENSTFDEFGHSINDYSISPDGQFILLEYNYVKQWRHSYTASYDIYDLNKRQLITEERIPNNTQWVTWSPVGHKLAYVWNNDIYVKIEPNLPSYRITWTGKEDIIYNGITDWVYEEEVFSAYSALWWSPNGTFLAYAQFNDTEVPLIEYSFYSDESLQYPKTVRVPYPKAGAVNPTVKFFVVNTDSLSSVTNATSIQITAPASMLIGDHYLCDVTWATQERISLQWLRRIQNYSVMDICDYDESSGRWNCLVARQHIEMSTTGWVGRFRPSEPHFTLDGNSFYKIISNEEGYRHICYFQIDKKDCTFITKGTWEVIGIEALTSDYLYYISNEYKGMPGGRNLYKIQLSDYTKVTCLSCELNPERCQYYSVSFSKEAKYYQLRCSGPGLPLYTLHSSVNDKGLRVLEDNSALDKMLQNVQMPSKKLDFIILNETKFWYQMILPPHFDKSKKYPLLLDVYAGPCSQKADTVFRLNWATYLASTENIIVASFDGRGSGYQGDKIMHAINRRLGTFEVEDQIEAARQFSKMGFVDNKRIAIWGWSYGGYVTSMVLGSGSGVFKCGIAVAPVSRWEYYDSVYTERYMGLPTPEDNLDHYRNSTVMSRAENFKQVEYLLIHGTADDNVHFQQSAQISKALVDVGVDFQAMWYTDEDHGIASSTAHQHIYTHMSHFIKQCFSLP

In the case of `N#C[C@@H]1CCCN1C(=O)CNC(=O)c1ccnc2ccccc12`, the IC50 at Recombinant human DPP4 was over 1000 nM.
`Cn1ncnc1C(=O)[C@@H]1CCCN1C(=O)CNC(=O)c1ccnc2ccccc12`: the IC50 in assay [1] is over 1000 nM; on Human recombinant FAP [2], 316 nM.
Consider `N#C[C@@H]1CC(F)(F)CN1C(=O)CNC(=O)c1ccnc2ccccc12`, for which the “HL [min] (Biacore)” value on Human recombinant FAP [3] turned out to be 10.4 min.
Take `N#C[C@@H]1CCCN1C(=O)CNC(=O)c1ccnc2ccc(-c3ccc(C(=O)O)cc3)cc12`: the IC50 is 2.51 nM in assay [1], 1.58 nM on Human recombinant FAP [2] and over 1000 nM on Recombinant human DPP4. At Human recombinant FAP [3], the Kd is 0.2 nM. Besides, at Human recombinant FAP [3], the “HL [min] (Biacore)” value was determined as 11 min.
In the case of `CC(C)(C)OC(=O)N1CC[N+]([O-])(CCCOc2ccc3nccc(C(=O)NCC(=O)N4CC(F)(F)C[C@H]4C#N)c3c2)CC1`, the figures for the IC50 (in assay [1]; on Human recombinant FAP [2]) were 2.51 nM and 1 nM, respectively.
On the same counts, the results for `CC(C)(C)OC(=O)N1CC[N+]([O-])(CCCOc2ccc3c(c2)c(C(=O)NCC(=O)N2CC(F)(F)C[C@H]2C#N)cc[n+]3[O-])CC1` are 10 nM and 2.51 nM.
On the same counts, the results for `CC(C)(C)OC(=O)N1CCN(CCCOc2ccc3c(c2)c(C(=O)NCC(=O)N2CC(F)(F)C[C@H]2C#N)cc[n+]3[O-])CC1` are 10 nM and 2.51 nM.
On the same counts, the results for `CC(C)(C)OC(=O)N1CCN(CCCOc2ccc3nccc(C(=O)NCC(=O)N4CC(F)(F)C[C@H]4C#N)c3c2)CC1` are 3.98 nM and 1.58 nM.
As to `N#C[C@@H]1CCCN1C(=O)CNC(=O)c1ccnc2ccc(-n3cc(C(=O)NCCCNC(=O)CN4CCN(CC(=O)O)CCN(CC(=O)O)CCN(CC(=O)O)CC4)nn3)cc12`, at Human recombinant FAP [3], the “HL [min] (Biacore)” value was determined as 95 min.
With `N#C[C@@H]1CC(F)(F)CN1C(=O)CNC(=O)c1ccnc2ccc(-c3ccc(C(=O)NCCN4CCN(C(=O)CN5CCN(CC(=O)O)CCN(CC(=O)O)CCN(CC(=O)O)CC5)CC4)nc3)cc12`, on Human recombinant FAP [3], the “pKD (Biacore)” value is listed as over 11 and the “HL [min] (Biacore)” value is over 500 min.
Regarding `O=C(NCC(=O)N1CCC[C@H]1B(O)O)c1ccnc2ccccc12`, the figures for the IC50 (in assay [1]; at Human recombinant FAP [2]) were 3.16 nM and 1.26 nM, respectively.
On to `CS(=O)(=O)c1ccc(-c2ccc3nccc(C(=O)NCC(=O)N4CC(F)(F)C[C@H]4C#N)c3c2)c(CO)c1`, for which, in assay [1], the IC50 was 2 nM. In addition, on Human recombinant FAP [2], the IC50 is 0.501 nM. On Human recombinant FAP [3], the Kd is under 0.01 nM and the “HL [min] (Biacore)” value is over 500 min.
As to `COc1cccc2c(C(=O)NCC(=O)N3CC(F)(F)C[C@H]3C#N)ccnc12`, the values for the IC50 (in assay [1]; on Human recombinant FAP [2]) were 20 nM and 6.31 nM, respectively.
On the same counts, the results for `Cc1cccc2c(C(=O)NCC(=O)N3CC(F)(F)C[C@H]3C#N)ccnc12` are 25.1 nM and 12.6 nM.
On the same counts, the results for `CCOc1cccc2c(C(=O)NCC(=O)N3CC(F)(F)C[C@H]3C#N)ccnc12` are 20 nM and 3.16 nM.
For `N#C[C@@H]1CC(F)(F)CN1C(=O)CNC(=O)c1ccnc2c(OCC3CC3)cccc12`, the IC50 in assay [1] is 15.8 nM; at Human recombinant FAP [2], 3.16 nM.
Take `O=C(NCC(=O)N1CCC[C@H]1C(=O)CO)c1ccnc2ccccc12`: the “HL [min] (Biacore)” value at Human recombinant FAP [3] is recorded as 3.1 min. Further, the “pIC50 (mouseFAP)” value at Recombinant mouse FAP was 8.2.
For `N#C[C@@H]1CC(F)(F)CN1C(=O)CNC(=O)c1ccnc2c(OCCCCc3ccccc3)cccc12`, the “pIC50 (FACS)” value in assay [1] amounted to 7.7. Also, the “pIC50 (Activity)” value on Human recombinant FAP [2] stood at 8.2.
`O=C(O)CN1CCN(CC(=O)O)CCN(CC(=O)NCCCS(=O)(=O)c2ccc(-c3ccc4nccc(C(=O)NCC(=O)N5CCC[C@H]5C(=O)c5nc6ccccc6o5)c4c3)cc2)CCN(CC(=O)O)CC1` [drawing 317]: on Human recombinant FAP [3], the “pKD (Biacore)” value is over 11 and the “HL [min] (Biacore)” value is over 500 min. Further, at Recombinant mouse FAP, the “pIC50 (mouseFAP)” value stood at 8.6.

The values above are taken from EP4122499A1, “FIBROBLAST ACTIVATION PROTEIN INHIBITORS AND USE THEREOF” (3B Pharmaceuticals GmbH, priority 2021, dated 2023).
